Results from patent US20070249560A1, “Hydrolysis resistant organomodified silyated surfactants” (priority 2006, published 2007).

How the values were obtained:
[1] = Surface tension, Kruss surface tensiometer; assay type: physicochemical; details: 0.1 wt % in 0.005M NaCl water
Procedure: Surface tension was measured using a Kruss surface tensiometer, with a sand blasted platinum blade as the sensor. Solutions of the various components were prepared at 0.1 wt % in 0.005M NaCl water (deionized), as an equilibrium aid.

[2] = Spreading of 10 μL droplet on polystyrene Petri dishes; assay type: physicochemical; details: 30 seconds
Procedure: Spreading was determined by applying a 10 μL droplet, of surfactant solution to polystyrene Petri dishes (Fisher Scientific) and measuring the spread diameter (mm) after 30 seconds, at a relative humidity between 50 and 70% (at 22 to 25° C.). The solution was applied with an automatic pipette to provide droplets of reproducible volume. Deionized water that was further purified with a Millipore filtration system was used to prepare the surfactant solutions.

| Surface Tension [1] [mN/m] | Spread Diameter (mm) ([2]; 0.05% weight surfactant) | Spread Diameter (mm) ([2]; 0.1% weight surfactant) | Spread Diameter (mm) ([2]; 0.3% weight surfactant) | Spread Diameter (mm) ([2]; 0.5% weight surfactant) | Molecule |
| --- | --- | --- | --- | --- | --- |
| 27.7 | – | 7 | – | 7 | C[Si](C)(C)C[Si](C)(C)CCCOCCOCCOCCOCCOCCOCCOCCOCCOCCOCCOCCO [Product 8] |
| 26.7 | – | 7 | – | 7 | C[Si](C)(C)CC[Si](C)(C)CCCOCCOCCOCCOCCOCCOCCOCCOCCOCCOCCOCCO [Product 9] |

Continued, molecule first:

| Molecule | Surface Tension [1] [mN/m] | Spread Diameter (mm) ([2]; 0.05% weight surfactant) | Spread Diameter (mm) ([2]; 0.1% weight surfactant) | Spread Diameter (mm) ([2]; 0.3% weight surfactant) | Spread Diameter (mm) ([2]; 0.5% weight surfactant) |
| --- | --- | --- | --- | --- | --- |
| C[Si](C)(C)C[Si](C)(C)CCCOCCOCCOCCOCCO [Product 6] | 22.5 | 40 | 45 | 53 | 47 |
| C[Si](C)(C)CC[Si](C)(C)CCCOCCOCCOCCOCCO [Product 7] | 22.7 | 30 | 42 | 48 | 49 |
| Octylphenolethoxylate, containing 10 polyoxyethylene units [OPE, reference compound] | 31.8 | – | 9 | – | 10 |
